Biological target: T1, epidermal growth factor receptor (EGFR) (Homo sapiens, UniProt P00533)
T1 construct: extracellular domain
Assay: SPR (Biacore S200, EGFR amine-coupled to CM5 chip, […] model); also BLI (Octet RED96) at […]
Type: binding

T1 sequence (P00533 25-645 limits assumed): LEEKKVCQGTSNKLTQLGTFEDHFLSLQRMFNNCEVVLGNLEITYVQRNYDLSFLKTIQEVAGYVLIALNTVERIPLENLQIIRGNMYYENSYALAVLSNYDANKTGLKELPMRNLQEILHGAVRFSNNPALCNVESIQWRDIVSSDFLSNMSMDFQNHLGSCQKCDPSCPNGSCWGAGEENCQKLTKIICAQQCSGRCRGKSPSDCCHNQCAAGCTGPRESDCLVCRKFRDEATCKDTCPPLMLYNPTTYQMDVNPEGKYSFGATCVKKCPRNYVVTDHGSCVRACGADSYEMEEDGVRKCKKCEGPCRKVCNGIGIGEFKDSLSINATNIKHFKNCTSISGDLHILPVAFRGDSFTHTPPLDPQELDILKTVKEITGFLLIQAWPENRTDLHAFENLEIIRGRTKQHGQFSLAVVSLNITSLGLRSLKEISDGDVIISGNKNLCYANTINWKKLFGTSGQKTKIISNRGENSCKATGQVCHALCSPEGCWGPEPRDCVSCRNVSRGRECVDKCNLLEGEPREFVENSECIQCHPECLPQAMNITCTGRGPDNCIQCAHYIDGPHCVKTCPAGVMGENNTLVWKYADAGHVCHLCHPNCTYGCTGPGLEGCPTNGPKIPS

## O=C(O[C@@H]1Cc2c(O)cc(O)cc2O[C@@H]1c1cc(O)c(O)c(O)c1-c1c([C@H]2Oc3cc(O)cc(O)c3C[C@H]2OC(=O)c2cc(O)c(O)c(O)c2)cc(O)c(O)c1O)c1cc(O)c(O)c(O)c1 [compound 3, theasinensin A]
  Kd: 7.14 µM
